Each structure is given as a SMILES string.

One may read the melting point as the temperature, or range, at which the solid turns liquid. The compound `Cl.N[C@@]1(C(=O)OCOC(=O)c2ccc3ccccc3c2)CC[C@H]2[C@H](C(=O)O)[C@H]21` had a melting point of 184 to 185 °C.
In the case of `CC(C)(C)C(=O)OCOC(=O)[C@H]1[C@@H]2CC[C@@](N)(C(=O)O)[C@@H]21.Cl`, the melting point is 258 °C (dec.).
The value for `Cl.N[C@@]1(C(=O)O)CC[C@H]2[C@H](C(=O)OCOC(=O)c3ccccc3)[C@H]21` was 230 °C (dec.); that for `CC(C)OC(=O)OCOC(=O)[C@H]1[C@@H]2CC[C@@](N)(C(=O)OCOC(=O)OC(C)C)[C@@H]21.Cl` was 52 °C; that for `CC(C)C(=O)OCOC(=O)[C@H]1[C@@H]2CC[C@@](N)(C(=O)OCOC(=O)C(C)C)[C@@H]21.Cl` was 224 to 226 °C.
With `Cl.N[C@@]1(C(=O)OCOC(=O)c2ccc3ccccc3c2)CC[C@H]2[C@H](C(=O)OCOC(=O)c3ccc4ccccc4c3)[C@H]21`, the melting point was 125 to 127 °C.
In turn, `Cl.N[C@@]1(C(=O)OCOC(=O)c2cccc3ccccc23)CC[C@H]2[C@H](C(=O)OCOC(=O)c3cccc4ccccc34)[C@H]21` displayed a melting point of 92 to 94 °C.
The compound `CC(C)OC(=O)OCOC(=O)[C@]1(N)CC[C@H]2[C@H](C(=O)O)[C@H]21.Cl` [Example 14, (1S,2S,5R,6S)-2-Amino-bicyclo[3.1.0]hexane-2,6-dicarboxylic acid 2-isopropyloxycarbonyloxymethyl ester hydrochloride] displayed a melting point of 59 to 60 °C.
The value for `Cl.N[C@@]1(C(=O)OCOC(=O)c2cccc3ccccc23)CC[C@H]2[C@H](C(=O)O)[C@H]21` [Example 17, (1S,2S,5R,6S)-2-amino-bicyclo[3.1.0]hexane-2,6-dicarboxylic acid 2-(naphthalene-1′-carbonyloxymethyl) ester hydrochloride] was 212 to 213 °C.
As for `CC(C)(C)C(=O)OCOC(=O)[C@H]1[C@@H]2CC[C@@](N)(C(=O)O)[C@@H]21` [Example 21, (1S,2S,5R,6S)-2-Amino-bicyclo[3.1.0]hexane-2,6-dicarboxylic acid 6-tert-butylcarbonyloxymethyl ester], the melting point was in the range of 205 to 206 °C.
In turn, `CC(C)OC(=O)OCOC(=O)[C@H]1[C@@H]2CC[C@@](N)(C(=O)O)[C@@H]21` [Example 23, (1S,2S,5R,6S)-2-Amino-bicyclo[3.1.0]hexane-2,6-dicarboxylic acid 6-isopropyloxycarbonyloxymethyl ester] yielded a melting point of 196 to 197 °C.
Compound `CCCC(=O)OCOC(=O)[C@H]1[C@@H]2CC[C@@](N)(C(=O)O)[C@@H]21` [Example 24, (1S,2S,5R,6S)-2-amino-bicyclo[3.1.0]hexane-2,6-dicarboxylic acid 6-n-butyryloxymethyl ester] had a melting point of 199 to 200 °C.
For `COC(=O)OCOC(=O)[C@H]1[C@@H]2CC[C@@](N)(C(=O)O)[C@@H]21` [Example 25, (1S,2S,5R,6S)-2-amino-bicyclo[3.1.0]hexane-2,6-dicarboxylic acid 6-methoxycarbonyloxymethyl ester], the melting point was in the range of 214 to 215 °C.
As for `Cc1oc(=O)oc1COC(=O)[C@H]1[C@@H]2CC[C@@](N)(C(=O)O)[C@@H]21` [Example 26, (1S,2S,5R,6S)-2-amino-bicyclo[3.1.0]hexane-2,6-dicarboxylic acid 6-(5′-methyl-2′-oxo-[1′,3′]dioxolen-4′-yl)methyl ester], the melting point is 180 °C (dec.).
Regarding `Cl.N[C@@]1(C(=O)OCOC(=O)c2ccccc2)CC[C@H]2[C@H](C(=O)OCOC(=O)c3ccccc3)[C@H]21` [Example 43, (1S,2S,5R,6S)-2-Amino-bicyclo[3.1.0]hexane-2,6-dicarboxylic acid, 2,6-dibenzoyloxymethyl ester hydrochloride], the melting point came out at 73 °C.

Source of the values: patent US20040248963A1, “Prodrugs of excitatory amino acids” (priority 2001, published 2004).
